# In ChEMBL document CHEMBL3885861, “Open TG-GATES”:
# Species on record: Rattus norvegicus
# Assay: Open TG-GATES - Regimen: Single
# Assay type: toxicity, organism-based, Sprague-Dawley
# Set-up: regimen Single, gender Male, age 6 weeks
# Conditions: in vivo, po, 6 mg/kg, route gavage, dose level Middle; for APTT / Bas / Eos / Fbg / Hb / Lym / MCH / MCHC / MCV / Mono / Neu / PT / Plat / RBC / Ret / WBC: tissue Blood; for KIDNEY_L / KIDNEY_R / KIDNEY_TOTAL: tissue Kidney; for LIVER: tissue Liver; for ALP / ALT / AST / BUN / CRE / Ca / Cl / DBIL / GLC / IP / K / LDH / Na / PL / RALB / TBIL / TC / TG / TP / gamma-GTP: tissue Plasma
smiles,measurement,setting,value
OCCN1CCN(CCCN2c3ccccc3Sc3ccc(C(F)(F)F)cc32)CC1 [FLUPHENAZINE],TERMINAL_BW,3 h,196.9 g
same,APTT,3 h,16 s
same,Bas,3 h,0%
same,Eos,3 h,0.6%
same,Fbg,3 h,213.6 mg/dL
same,Hb,3 h,12.8 g/dL
same,Lym,3 h,75%
same,MCH,3 h,21.2 pg
same,MCHC,3 h,32.9%
same,MCV,3 h,64.2 fL
same,Mono,3 h,9.2%
same,Neu,3 h,15.2%
same,PT,3 h,12.5 s
same,Plat,3 h,98.9 x10_4/uL
same,RBC,3 h,607.8 x10_4/ul
same,Ret,3 h,7.7%
same,WBC,3 h,78.7 x10_2/uL
same,KIDNEY_L,3 h,0.9 g
same,KIDNEY_R,3 h,0.9 g
same,KIDNEY_TOTAL,3 h,1.8 g
same,LIVER,3 h,9.1 g
same,ALP,3 h,915 IU/L
same,ALT,3 h,35.8 IU/L
same,AST,3 h,63.2 IU/L
same,BUN,3 h,10 mg/dL
same,CRE,3 h,0.5 mg/dL
same,Ca,3 h,10.3 mg/dL
same,Cl,3 h,105.4 meq/L
same,DBIL,3 h,0.008 mg/dL
same,GLC,3 h,191 mg/dL
same,IP,3 h,10.4 mg/dL
same,K,3 h,4.4 meq/L
same,LDH,3 h,91.6 IU/L
same,Na,3 h,138.2 meq/L
same,PL,3 h,136.6 mg/dL
same,RALB,3 h,3.6 g/dL
same,TBIL,3 h,0.4 mg/dL
same,TC,3 h,77.2 mg/dL
same,TG,3 h,48 mg/dL
same,TP,3 h,5.3 g/dL
same,gamma-GTP,3 h,1.8 IU/L
same,TERMINAL_BW,6 h,195.2 g
same,APTT,6 h,16.4 s
same,Bas,6 h,0%
same,Eos,6 h,0.8%
same,Fbg,6 h,211.6 mg/dL
same,Hb,6 h,13.2 g/dL
same,Lym,6 h,74.4%
same,MCH,6 h,21.3 pg
same,MCHC,6 h,32.8%
same,MCV,6 h,64.9 fL
same,Mono,6 h,9.4%
same,Neu,6 h,15.8%
same,PT,6 h,12.3 s
same,Plat,6 h,113.8 x10_4/uL
same,RBC,6 h,620.4 x10_4/ul
same,Ret,6 h,8.6%
same,WBC,6 h,89.6 x10_2/uL
same,KIDNEY_L,6 h,0.9 g
same,KIDNEY_R,6 h,0.9 g
same,KIDNEY_TOTAL,6 h,1.8 g
same,LIVER,6 h,8.8 g
same,ALP,6 h,722.4 IU/L
same,ALT,6 h,30 IU/L
same,AST,6 h,56.2 IU/L
same,BUN,6 h,10.4 mg/dL
same,CRE,6 h,0.5 mg/dL
same,Ca,6 h,10.2 mg/dL
same,Cl,6 h,105.6 meq/L
same,DBIL,6 h,0.014 mg/dL
same,GLC,6 h,196 mg/dL
same,IP,6 h,10.2 mg/dL
same,K,6 h,4.7 meq/L
same,LDH,6 h,90.8 IU/L
same,Na,6 h,136 meq/L
same,PL,6 h,144.4 mg/dL
same,RALB,6 h,3.6 g/dL
same,TBIL,6 h,0.4 mg/dL
same,TC,6 h,84.6 mg/dL
same,TG,6 h,26.8 mg/dL
same,TP,6 h,5.3 g/dL
same,gamma-GTP,6 h,1.4 IU/L
